Efflux ratio, Papp A→B and Papp B→A data for 2 molecules are collected here from patent US20250270227A1, “CAMPTOTHECIN DERIVATIVE, AND PHARMACEUTICAL COMPOSITION AND USE THEREOF” (SIMCERE ZAIMING PHARMACEUTICAL CO., LTD., priority 2021, published 2025).

The nature of this series: Membrane permeability and transport characteristics (Caco-2 Transwell). Format: in vitro ADME. To be noted: human, pH 7.4; for efflux ratio at 2 h, 10 μM: Caco-2, Papp (B-A)/Papp (A-B); for Papp A→B at 2 h, 10 μM: Caco-2, apical to basal; for Papp B→A at 2 h, 10 μM: Caco-2, basal to apical. How it is done:
The membrane permeability and transport characteristics of the compounds of the present disclosure were determined by the following experimental method.
• 1. Caco-2 cells (ATCC) • 2. HEPES (Solarbio 804D049), penicillin/streptomycin (Solarbio 20200109) and PBS (Solarbio 20200620) • 3. Fetal bovine serum (FBS) (Sigma WXBD0055V), fluorescein (Sigma MKCJ3738) and NaHCO3 (Sigma SLBZ4647) • 4. Hank's balanced salt solution (HBSS) (Gibco 2085528), non-essential amino acid (NEAA) (Gibco 2211548) and Trypsin/EDTA (Gibco 2120732) • 5. High glucose DMEM (Corning 20319014) • 6. HTS Transwell-96 Well Permeable (Corning, 3391) • 7. Resistance tester (Millipore, Millicell® ERS-2) • 8. Cellometer® Vision (Nexcelom Bioscience) • 9. Infinite 200 PRO microplate reader (Tecan, Infinite M200PRO) • 10. Positive control compounds metoprolol (Sinopharm 100084-201403), erythromycin (MCE 84550) and cimetidine (Sinopharm 100158-201406) • 11. ABI QTrap 5500 liquid chromatography-mass spectrometry
• 1) Transport buffer (HBSS containing 25 mM HEPES, pH 7.4) was prepared: 5.958 g of HEPES and 0.35 g of NaHCO3 were accurately weighed, 900 mL of pure water was added to dissolve same, then 100 mL of 10×HBSS was added, uniform stirring was performed, the pH was adjust to 7.4, and filtering was performed. • 2) Caco-2 cell culture medium was prepared: FBS, penicillin/streptomycin, kanamycin and NEAA were added to high glucose DMEM (containing L-glutamine) medium to prepare a cell culture medium containing 10% FBS, 100 U/mL penicillin/0.1 mg/mL streptomycin, 0.6 μg/mL kanamycin and 1×NEAA. • 3) Cells were cultured in T-75 culture flasks in an incubator at 37° C. and 5% CO2, and the medium was discarded when the cell growth density reached 80-90%. The cells were rinsed with 5 mL of PBS, 1.5 mL of Trypsin/EDTA was added, then the cells were incubated in an incubator at 37° C. for 5-10 min until the cells fell off in the form of quicksand, and finally Trypsin/EDTA was neutralized with an FBS-containing medium. 4) The cell suspension was centrifuged at 120 g for 10 min, and the supernatant was discarded. • 5) The cell culture medium was added to re-suspend the cells to obtain a cell suspension with a density of […] cells/mL.
• 1) 50 μL of medium was added to each well of Transwell chamber, and 25 mL of medium was added to the lower layer. The Transwell chamber was preheated in an incubator at 37° C. and 5% CO2 for 1 h. • 2) 50 μL of the cell suspension was added to each well of the preheated Transwell chamber to a final seeding density of 2.4×10^5 cells/cm. • 3) The cells were cultured for 14-18 days, the medium was changed every other day, and the medium was changed within 48 h after the initial seeding in the plate. The medium must be changed one day before the experiment.
• 1) After 14 days of cell culture, the cells were fused and differentiated, ready for transport experiment. • 2) The resistance of monolayer cell membrane was measured by the resistance tester, and the resistance of each well was recorded. • 3) After the measurement was completed, the Transwell culture plate was re-incubated. • 4) The TEER value was calculated: […]

With `CC[C@@]1(O)C(=O)OCc2c1cc1n(c2=O)Cc2c-1nc1cc3c(cc1c2CNC(=O)C(O)C1CC1)OCO3` (stereo partly drawn) [Compound 14, 2-cyclopropyl-N-(((S)-7-ethyl-7-hydroxy-8,11-dioxo-7,8,11,13-tetrahydro-10H-[1,3]dioxolo[4,5-g]pyrano[3′,4′:6,7]indolizino[1,2-b]quinolin-14-yl)methyl)-2-hydroxyacetamide], the efflux ratio at 2 h, 10 μM stood at 15.2; the Papp A→B at 2 h, 10 μM was 0.26 ×10⁻⁶ cm/s; the Papp B→A at 2 h, 10 μM was 3.95 ×10⁻⁶ cm/s.

For `[2H]C1([2H])Oc2cc3nc4c(c(CNC(=O)C(O)C5CC5)c3cc2O1)Cn1c-4cc2c(c1=O)COC(=O)[C@]2(O)CC` (stereo partly drawn) [Compound 39, 2-cyclopropyl-N-(((S)-7-ethyl-7-hydroxy-8,11-dioxo-7,8,11,13-tetrahydro-10H-[1,3]dioxolo[4,5-g]pyrano[3′,4′:6,7]indolizino[1,2-b]quinolin-14-yl-2,2-d2)methyl)-2-hydroxyacetamide], the efflux ratio at 2 h, 10 μM turned out to be 5.9; the Papp A→B at 2 h, 10 μM stood at 0.71 ×10⁻⁶ cm/s; the Papp B→A at 2 h, 10 μM was 4.21 ×10⁻⁶ cm/s.
